In patent US20120196933A1, “MEXILETINE PRODRUGS” (priority 2010, published 2012):
Counter-ions that a name gives are not always drawn. Marks after values point to notes of the source that are not given here.

Tests used:
[1] = Systemic availability of mexiletine in the dog from mexiletine prodrugs (oral gavage); assay type: in vivo; details: for T50% Cmax / Cmax of mexiletine / AUC of mexiletine / F(rel): 1 mg/kg mexiletine free base; for T50% Cmax / Cmax of mexiletine / AUC of mexiletine: plasma mexiletine; for F(rel): relative to mexiletine
Method: Test substances (i.e., mexiletine, and various mexiletine amino acid prodrugs) were administered by oral gavage to groups of two or some cases five dogs. The characteristics of the test animals are set out in Table 6.
Blood samples were taken at various times after administration and submitted to analysis for parent drug using a validated LC-MS-MS assay. Pharmacokinetic parameters derived from the plasma bioanalytical data were determined using Win Nonlin.

[2] = In vitro stability of mexiletine prodrugs under conditions prevailing in the gut; assay type: physicochemical; details: 0.1M phosphate buffer pH 7.4, 2 h
[3] = as above; assay type: physicochemical; details: HPLC; for Simulated gastric fluid (pH 1.1): % remaining after 2 h/37° C.: simulated gastric fluid pH 1.1, 2 h; for Simulated intestinal fluid (pH 6.8): % remaining after 2 h/37° C.: simulated intestinal fluid pH 6.8, 2 h
Method: To investigate if the prodrugs of the present invention are stable in conditions mimicking the gut, various mexiletine amino acid prodrugs were incubated at 37° C. in simulated gastric and simulated intestinal juice (USP defined composition) for 2 hours. The remaining concentrations of the prodrug were then assayed by HPLC.

[4] = Systemic availability of mexiletine in the cynomolgus monkey from mexiletine prodrugs (oral gavage); assay type: in vivo; details: 1 mg/kg mexiletine free base; for Cmax of mexiletine / T50% Cmax / AUC of mexiletine: plasma mexiletine; for F(rel): relative to mexiletine
Method: Test substances (i.e., mexiletine, and various mexiletine amino acid prodrugs) were administered by oral gavage to groups of two and, in one case, five male cynomolgus monkeys. Blood samples were taken at various times after administration and submitted to analysis for the parent drug using a validated LC-MS-MS assay. Pharmacokinetic parameters derived from the plasma bioanalytical data were determined using Win Nonlin.

Cc1cccc(C)c1OCC(C)NC(=O)[C@@H](N)C(C)C.Cl (stereo partly drawn) [Mexiletine valine amide, Mexiletine-(S)-Valine Amide Hydrochloride]
T50% Cmax [1]: 5.0** h | pH 7.4, 37° C. 0.1M phosphate buffer: % remaining after 2 h/37° C. [2]: 98.8% | Simulated gastric fluid (pH 1.1): % remaining after 2 h/37° C. [3]: 98.7% | Simulated intestinal fluid (pH 6.8): % remaining after 2 h/37° C. [3]: 98.3%

Cc1cccc(C)c1OCC(C)NC(=O)C(N)C1CC1 (stereo not shown) [Mexiletine cyclopropyl glycine amide]
Cmax of mexiletine [1]: 0.703 ng/mL | Cmax of mexiletine [4]: 0.895 ng/mL

CNC(=N)NCCC[C@H](N)C(=O)NC(C)COc1c(C)cccc1C (stereo partly drawn) [Mexiletine (S)-N-methylarginine amide, Mexiletine-(S)—N-Methylarginine Amide Dihydrochloride]
pH 7.4, 37° C. 0.1M phosphate buffer: % remaining after 2 h/37° C. [2]: 99.9% | Simulated gastric fluid (pH 1.1): % remaining after 2 h/37° C. [3]: 99.8% | Simulated intestinal fluid (pH 6.8): % remaining after 2 h/37° C. [3]: 93.6%

Cc1cccc(C)c1OCC(C)NC(=O)[C@@H](N)CC[S+](C)C (stereo partly drawn) [Mexiletine S-methyl-methionine chloride, Mexiletine-[(S)—S-Methyl-Methionine Chloride] Amide Hydrochloride]
T50% Cmax [1]: 5.92 h | pH 7.4, 37° C. 0.1M phosphate buffer: % remaining after 2 h/37° C. [2]: 99.8% | T50% Cmax [4]: 5.99 h | Simulated gastric fluid (pH 1.1): % remaining after 2 h/37° C. [3]: 99.2% | Simulated intestinal fluid (pH 6.8): % remaining after 2 h/37° C. [3]: 99.4%

Cc1cccc(C)c1OCC(C)NC(=O)C(N)CN (stereo not shown)
AUC of mexiletine [1]: 8371 ng·h/mL | Cmax of mexiletine [1]: 103 ng/mL | T50% Cmax [1]: 10.0 h | F(rel) [1]: 77.9% | AUC of mexiletine [4]: 801 ng·h/mL | Cmax of mexiletine [4]: 82.7 ng/mL | T50% Cmax [4]: 7.88 h | F(rel) [4]: 116%

Cc1cccc(C)c1OCC(C)NC(=O)C(N)CCCNC(=N)N(C)C.Cl.Cl (mixture of isomers) [Mexiletine-(S)—N,N-Dimethylarginine Amide Dihydrochloride]
pH 7.4, 37° C. 0.1M phosphate buffer: % remaining after 2 h/37° C. [2]: 99.6% | Simulated gastric fluid (pH 1.1): % remaining after 2 h/37° C. [3]: 99.7% | Simulated intestinal fluid (pH 6.8): % remaining after 2 h/37° C. [3]: 96.8%

Cc1cccc(C)c1OCC(C)NC(=O)C(N)CCCNC(N)=O (stereo not shown) [Mexiletine citrulline amide]
T50% Cmax [1]: 3.0** h

CC(=O)N[C@@H](CCCCN)C(=O)NC(C)COc1c(C)cccc1C.Cl (stereo partly drawn) [Mexiletine [(S)-N^α-acetyl-lysine] amide, Mexiletine [(S)—N^α-Acetyl-Lysine] Amide Hydrochloride]
AUC of mexiletine [1]: 893 ng·h/mL | Cmax of mexiletine [1]: 90.8 ng/mL | T50% Cmax [1]: 8.08 h | F(rel) ([1]; listed as Mexiletine α acetyl lysine amide, Hydrochloride, 1 mg/kg): 83.1% | AUC of mexiletine [4]: 363 ng·h/mL | Cmax of mexiletine [4]: 30.3 ng/mL | T50% Cmax [4]: 8.98 h | F(rel) ([4]; Hydrochloride, 1 mg/kg): 60% | F(rel) ([4]; listed as Mexiletine acetyl Lysine amide, Hydrochloride, 1 mg/kg): 52.6%

Cc1cccc(C)c1OCC(C)NC(=O)[C@@H](N)Cc1ccccc1.Cl (stereo partly drawn) [Mexiletine phenylalanine amide, Mexiletine-(S)-Phenylalanine Amide Hydrochloride]
T50% Cmax [1]: 3.5** h

Cc1cccc(C)c1OCC(C)NC(=O)[C@@H](N)C[S+](C)[O-].O=C(O)C(F)(F)F (stereo partly drawn) [Mexiletine [(R)-S-methyl-cysteine, Mexiletine [(R)—S-Methyl-Cysteine Sulfoxide] Amide Trifluoroacetate]
AUC of mexiletine [1]: 144 ng·h/mL | Cmax of mexiletine [1]: 59.9 ng/mL | T50% Cmax [1]: 1.63 h | F(rel) [1]: 13.4% | AUC of mexiletine [4]: 432 ng·h/mL | Cmax of mexiletine [4]: 62.2 ng/mL | T50% Cmax [4]: 4.80 h | F(rel) ([4]; listed as Mexiletine methyl-cysteine sulfoxide amide, 1 mg/kg): 62.6%

Cc1cccc(C)c1OCC(C)NC(=O)[C@@H](N)CCCN (stereo partly drawn) [Mexiletine ornithine amide, Mexiletine-(S)-Ornithine Amide Di-hydrochloride]
pH 7.4, 37° C. 0.1M phosphate buffer: % remaining after 2 h/37° C. [2]: 99.5% | Simulated gastric fluid (pH 1.1): % remaining after 2 h/37° C. [3]: 99.7% | Simulated intestinal fluid (pH 6.8): % remaining after 2 h/37° C. [3]: 99.8%

Cc1cccc(C)c1OCC(C)NC(=O)[C@@H](N)C(C)(C)O (stereo partly drawn) [Mexiletine [^α-hydroxy-(5)-valine] amide, Mexiletine [β-hydroxy-(S)-valine] amide]
Cmax of mexiletine [1]: 1.68 ng/mL | Cmax of mexiletine [4]: BLQ

Cc1cccc(C)c1OCC(C)NC(=O)c1cccnc1 (stereo not shown) [Mexiletine nicotinic acid amide]
Bioavailability with respect to mexiletine [1]: negligible | Cmax of mexiletine [1]: BLQ

Cc1cccc(C)c1OCC(C)NC(=O)C(N)CCCNC(=N)N (stereo not shown) [Mexiletine arginine amide]
T50% Cmax [1]: 6.5** h | T50% Cmax [4]: 4.48 h

Cc1cccc(C)c1OCC(C)NC(=O)[C@@H](N)CCCCN=C(N)N.Cl.Cl (stereo partly drawn) [Mexiletine homo arginine amide, Mexiletine-(S)-Homoarginine Amide Dihydrochloride]
AUC of mexiletine [1]: 563 ng·h/mL | Cmax of mexiletine [1]: 86.9 ng/mL | T50% Cmax [1]: 5.39 h | F(rel) [1]: 52.4% | AUC of mexiletine [4]: 424 ng·h/mL | Cmax of mexiletine [4]: 56.8 ng/mL | T50% Cmax [4]: 5.13 h | F(rel) [4]: 61.5%

Cc1cccc(C)c1OCC(C)NC(=O)[C@@H](NC(=O)[C@@H](N)C(C)C)C(C)C.Cl (stereo partly shown) [Mexiletine valine-valine amide, Mexiletine-valine-valine Amide Hydrochloride]
T50% Cmax [1]: 4.25** h

Cc1cccc(C)c1OCC(C)NC(=O)C(N)CO (stereo not shown) [Mexiletine serine amide]
T50% Cmax [1]: 6.00 h | T50% Cmax [4]: 5.05 h

Cc1cccc(C)c1OCC(C)NC(=O)CCN (stereo not drawn) [Mexiletine β alanine amide]
Cmax of mexiletine [1]: BLQ | Cmax of mexiletine [4]: BLQ

Cc1cccc(C)c1OCC(C)NC(=O)[C@@H](N)CCC(N)=O.Cl (stereo partly shown) [Mexiletine glutamine amide]
Bioavailability with respect to mexiletine [1]: near complete | AUC of mexiletine [1]: 790 ng·h/mL | Cmax of mexiletine [1]: 117 ng/mL | T50% Cmax [1]: 5.60 h | F(rel) [1]: 73.5% | AUC of mexiletine [4]: 649 ng·h/mL | Cmax of mexiletine [4]: 105 ng/mL | T50% Cmax [4]: 4.0 h | F(rel) [4]: 94.1%

Cc1cccc(C)c1OCC(C)NC(=O)c1ccncc1 (stereo not shown) [Mexiletine isonicotinic acid amide]
Bioavailability with respect to mexiletine [1]: negligible

Cc1cccc(C)c1OCC(C)NC(=O)[C@@H](N)CC(=O)O (stereo partly drawn) [Mexiletine-(S)-aspartic acid amide, Mexiletine-(S)-Aspartic Acid Amide Hydrochloride]
pH 7.4, 37° C. 0.1M phosphate buffer: % remaining after 2 h/37° C. [2]: 99.9% | Simulated gastric fluid (pH 1.1): % remaining after 2 h/37° C. [3]: 99.2% | Simulated intestinal fluid (pH 6.8): % remaining after 2 h/37° C. [3]: 99.9%
